Data reported in PMC7395068, “The evolution of strategies to minimise the risk of human drug-induced liver injury (DILI) in drug discovery and development” (Archives of Toxicology, 2020).
Like-named read-outs stand apart in the source and are kept apart here.

Experiments:
[1] = Plasma free fraction (fu) and unbound Cmax (Cmax,u); type: in vitro ADME, human; details: unbound plasma Cmax
Experimental: The prediction of DILI severity was evaluated further using the 3D combined HCI assays using plasma-free fraction. The majority of fu values were obtained from literature, when unavailable in-house prediction was utilised. Unbound plasma Cmax concentrations (Cmax,u) were derived by multiplying total plasma Cmax with the corresponding free fraction (fu) for each compound.

[2] = cited from earlier work
HepG2 cells [3] = details: cited from earlier work
HepG2 cells [4] = details: cited from earlier work; remark: listed apart in the source
HepG2 cells [5] = details: cited from earlier work; remark: listed apart in the source
human hepatocytes = details: cited from earlier work
[6] = test system: THLE or HepG2 cells, isolated mitochondria, BSEP; details: cited from earlier work
PHH = details: cited from earlier work
hLiMTs [7] = details: cited from earlier work
PHH spheroids = details: cited from earlier work
[8] = test system: HepG2 C3A spheroid, BSEP, Glu/Gal in HepG2 cells, bioactivation; details: cited from earlier work
[9] = read-out: Human plasma Cmax; total plasma Cmax.tot, median of 9 literature references; cited from earlier work
[10] = plasma free fraction; cited from earlier work
[11] = cited from earlier work; remark: listed apart in the source
[12] = test system: THLE-Null and THLE-3A4 cells; details: In vitro Assay; ref Gustafsson 2014; cited from earlier work
[13] = test system: HepG2 cells, primary human hepatocytes; details: In vitro Assay; ref Garside 2014; cited from earlier work
Upcyte human hepatocytes = details: In vitro Assay; ref Tolosa 2019; cited from earlier work
[14] = ref Chen 2011; cited from earlier work
rBsep = details: cited from earlier work
hLiMTs [15] = experiment: Combined HCI (HCS) and cellular ATP 3D assay in hLiMTs; details: for AC50 / minimal effective concentration: Homo sapiens
HepaRG spheroids = experiment: Combined HCI (HCS) and cellular ATP 3D assay in HepaRG spheroids; details: for AC50 / minimal effective concentration: Homo sapiens
[16] = In vitro Assay, ref Persson 2013
[17] = Modeled in vitro assays (cytotoxicity, mitochondrial dysfunction, BSEP), ref Aleo et al. 2019
[18] = In vitro Assay, ref Proctor 2017
[19] = Microtissue model structural based (HCI), combined HCS and ATP, MEC < 25 × Cmax.tot cut-off

For CN(C)CCCN1c2ccccc2Sc2ccc(Cl)cc21 [chlorpromazine, reference compound], the “Human plasma Cmax,u” value [1] is given as 47 nM, the “DILI severity category (Chen et al. [2016])” value ([2]; LTKB DILIrank category, ref Chen et al. 2016) is given as “Less” and the “DILI severity category (Chen 2016)” value ([2]; human DILI classification, LTKB DILIrank, ref Chen et al. 2016) is given as “Less”. The DILI severity category ([2]; human DILI severity, ref Chen et al.) was “Less”, the “DILI +VE (5-8), DILI -VE (-4)” value ([2]; ref Chen 2016) was “+VE” and the DILI severity category ([2]; ref Chen 2016) was “vLess-DILI-Concern”. The “Structural based (HCI)” value (HepG2 cells [3]; In vitro Assay, ref O'Brien 2006) was “+VE”, the “DILI in vitro assay prediction, O'Brien (2006)” value (HepG2 cells [3]; Structural based (HCI), HepG2, ref O'Brien et al. 2006) was “+VE (lowest HCI endpoint IC50 (or in the absence of dose–response < 100 µM) < 30 × total human plasma exposure levels (Cmax.tot))” and the Cluser analysis (HepG2 cells [4]; [16]) was “+VE”. For the same compound, the “Structural based (HCI)” value (HepG2 cells [4]; [16]) was “+VE”, the “DILI in vitro assay prediction, Persson (2013)” value (HepG2 cells [4]; Structural based (HCI), HepG2, ref Persson et al. 2013) was “+VE” and the “Structural based (HCI)” value (HepG2 cells [5]; In vitro Assay, ref Tolosa 2012) was “+VE”. For the same compound, the “DILI in vitro assay prediction, Tolosa (2012)” value (HepG2 cells [5]; Structural based (HCI), HepG2, ref Tolosa et al. 2012) was “+VE”, the “Structural based (HCI)” value (human hepatocytes; In vitro Assay, ref Xu 2008) was “+VE” and the “DILI in vitro assay prediction, Xu (2008)” value (human hepatocytes; Structural based (HCI), human hepatocytes, ref Xu et al. 2008) was “+VE”. For the same compound, the “Partition Hybrid HRM Score” value ([6]; In vitro Assay, ref Aleo 2019) was “+VE”, the “Ro2 Hybrid HRM Score” value ([6]; In vitro Assay, ref Aleo 2019) was “+VE” and the “Partition Hybrid HRM Score ≥4, Aleo (2019)” value [6, 17] was “+VE (Partition Hybrid HRM Score ≥4)”. The “Partition Hybrid HRM Score ≥8, Aleo (2019)” value [6, 17] was “-VE”, the “Rule of Two hybrid HRM Score ≥3, Aleo (2019)” value [6, 17] was “+VE (Rule of Two hybrid HRM Score ≥3)” and the “Rule of Two hybrid HRM Score ≥8, Aleo (2019)” value [6, 17] was “-VE”. For the same compound, the “PHH/100xCmax, Proctor (2017)” value (PHH; 2D PHH, ATP, IC50 < 100 × Cmax.tot, ref Proctor et al. 2017) was “+VE (IC50 < 100 × Cmax.tot)”, the “PHH/100uM, Proctor (2017)” value (PHH; 2D PHH, ATP, IC50 threshold 100 µM, ref Proctor et al. 2017) was “+VE (IC50 threshold of 100 µM)” and the “PHH ATP <100uM” value (PHH; [18]) was “+VE (IC50 threshold of 100 µM)”. The “hLiMTs ATP <100uM” value (hLiMTs [7]; [18]) was “+VE (IC50 threshold of 100 µM)”, the “hLiMTs/100xCmax, Proctor (2017)” value (hLiMTs [7]; hLiMTs, ATP, IC50 < 100 × Cmax.tot, ref Proctor et al. 2017) was “+VE (IC50 < 100 × Cmax.tot)” and the “hLiMTs/100uM, Proctor (2017)” value (hLiMTs [7]; hLiMTs, ATP, IC50 threshold 100 µM, ref Proctor et al. 2017) was “+VE (IC50 threshold of 100 µM)”. The “hLiMTs ATP <20 x Cmax” value (PHH spheroids; In vitro Assay, ref Vorrink 2018) was “+VE (IC20 < 20 × Cmax.tot cut-off)”, the “DILI in vitro assay prediction, Vorrink (2018)” value (PHH spheroids; PHH spheroids, ATP, 14 days, IC20 < 20 × Cmax.tot, ref Vorrink et al. 2018) was “+VE (IC20 < 20 × Cmax.tot cut-off)” and the “Bayesian Machine Learning DILI prediction, Williams (2019)” value ([8]; Bayesian modeling, ref Williams et al. 2019) was “+VE”. The “Bayesian Machine Learning” value ([8]; In vitro Assay, ref Williams 2019) was “+VE”, the Cmax [9] was 941 nM and the fu [10] was 0.050. For the same compound, the “Assigned DILI category” value ([11]; Chen et al. 2016 or literature alignment, ref Chen et al. 2016) was 2, the “In vivo DILI” value ([11]; […]) was “+VE” and the “In vivo DILI” value ([11]; ref Aleo 2019) was “+VE”. For the same compound, the “In vivo DILI” value ([11]; ref Dawson 2012) was “+VE”, the “In vivo DILI” value ([11]; ref Garside 2014) was “+VE” and the “In vivo DILI” value ([11]; ref Gustafsson 2014) was “+VE”. For the same compound, the “In vivo DILI” value ([11]; ref O'Brien 2006) was “+VE”, the “In vivo DILI” value ([11]; ref Persson 2013) was “+VE” and the “In vivo DILI” value ([11]; ref Proctor 2017) was “+VE”. For the same compound, the “In vivo DILI” value ([11]; ref Tolosa 2012) was “+VE”, the “In vivo DILI” value ([11]; ref Tolosa 2019) was “+VE” and the “In vivo DILI” value ([11]; ref Vorrink 2018) was “+VE”. For the same compound, the “In vivo DILI” value ([11]; ref Williams 2019) was “+VE”, the “In vivo DILI” value ([11]; ref Xu 2008) was “+VE” and the THLE-Null [12] was “+VE”. For the same compound, the “Cluster 1-6 +VE Assay” value [13] was “+VE”, the “Upcytes multi donor assay 14day data” value (Upcyte human hepatocytes) was “+VE” and the “DILI Score (FDA) (1-8)” value [14] was 2. The “Inhibition of rBsep cutoff<1& cmax u>.2” value (rBsep; In vitro Assay, ref Dawson 2012) was “-VE”, the “Inhibition of rBsep cutoff<3” value (rBsep) was “+VE” and the AC50 (hLiMTs [15]; read-out: ATP endpoint AC50) was 3.73 µM. It also gave a minimal effective concentration (hLiMTs [15]; read-out: ATP endpoint MEC) of 2.7 µM, an AC50 (hLiMTs [15]; read-out: HCS endpoint AC50) of 6.41 µM and a minimal effective concentration (hLiMTs [15]; read-out: HCS endpoint MEC) of 2.47 µM. For the same compound, the “DILI prediction hLiMTs (HCS-MEC)” value (hLiMTs [15]; [19]) was “+VE (MEC < 25 × Cmax.tot cut-off)”, the “hLiMTs <25x Avg Cmax ATP” value (hLiMTs [15]; hLiMTs, ATP endpoint, cut-off <25x Avg Cmax) was “+ve” and the “hLiMTs <100x Avg Cmaxu ATP” value (hLiMTs [15]; hLiMTs, ATP endpoint, cut-off <100x Avg Cmaxu) was “+ve (<100x Avg Cmaxu)”. For the same compound, the “hLiMTs <25x Avg Cmax HCS” value (hLiMTs [15]; hLiMTs, HCS endpoints, cut-off <25x Avg Cmax) was “+ve”, the “hLiMTs <100x Avg Cmaxu HCS” value (hLiMTs [15]; hLiMTs, HCS endpoints, cut-off <100x Avg Cmaxu) was “+ve (<100x Avg Cmaxu)” and the “hLiMTs <25x Avg Cmax All” value (hLiMTs [15]; hLiMTs, all endpoints (ATP and HCS), cut-off <25x Avg Cmax) was “+ve”. The “hLiMTs Cmax max All” value (hLiMTs [15]; hLiMTs, all endpoints, Cmax max used) was “+ve”, the “hLiMTs Cmax min All” value (hLiMTs [15]; hLiMTs, all endpoints, Cmax min used) was “+ve” and the “hLiMTs <10 uM All” value (hLiMTs [15]; hLiMTs, all endpoints, cut-off <10 uM) was “+ve (<10 uM)”. The “hLiMTs <100x Avg Cmaxu All” value (hLiMTs [15]; hLiMTs, all endpoints, cut-off <100x Avg Cmaxu) was “+ve (<100x Avg Cmaxu)”, the “HepaRG <25x Avg Cmax ATP” value (HepaRG spheroids; HepaRG, ATP endpoint, cut-off <25x Avg Cmax) was “+ve” and the “HepaRG <100x Avg Cmaxu ATP” value (HepaRG spheroids; HepaRG, ATP endpoint, cut-off <100x Avg Cmaxu) was “+ve (<100x Avg Cmaxu)”. The “HepaRG <25x Avg Cmax HCS” value (HepaRG spheroids; HepaRG, HCS endpoints, cut-off <25x Avg Cmax) was “+ve”, the “HepaRG <100x Avg Cmaxu HCS” value (HepaRG spheroids; HepaRG, HCS endpoints, cut-off <100x Avg Cmaxu) was “+ve (<100x Avg Cmaxu)” and the “HepaRG <25x Avg Cmax All” value (HepaRG spheroids; HepaRG, all endpoints (ATP and HCS), cut-off <25x Avg Cmax) was “+ve”. For the same compound, the “HepaRG Cmax max All” value (HepaRG spheroids; HepaRG, all endpoints, Cmax max used) was “+ve”, the “HepaRG Cmax min All” value (HepaRG spheroids; HepaRG, all endpoints, Cmax min used) was “+ve” and the “HepaRG <10 uM All” value (HepaRG spheroids; HepaRG, all endpoints, cut-off <10 uM) was “+ve (<10 uM)”. The “HepaRG <100x Avg Cmaxu All” value (HepaRG spheroids; HepaRG, all endpoints, cut-off <100x Avg Cmaxu) was “+ve (<100x Avg Cmaxu)”, the AC50 (HepaRG spheroids; HepaRG, read-out: ATP endpoint AC50) was 6.33 µM and the minimal effective concentration (HepaRG spheroids; HepaRG, read-out: ATP endpoint MEC) was 3.45 µM. The AC50 (HepaRG spheroids; HepaRG, read-out: HCS endpoint AC50) was 8.8 µM, the minimal effective concentration (HepaRG spheroids; HepaRG, read-out: HCS endpoint MEC) was 1.72 µM and the “DILI prediction HepaRG spheroids (HCS-MEC)” value (HepaRG spheroids; [19]) was “+VE (MEC < 25 × Cmax.tot cut-off)”.
